Reference: paper PMC8516952, “Two triterpenoids from Rubus fraxinifolius leaves and their tyrosinase and elastase inhibitory activities” (Scientific Reports, 2021)
Converted amounts (≈) assume the structure as drawn.

Columns and labels:
mushroom tyrosinase = experiment: Tyrosinase inhibition assay (DOPA-chrome formation method); type: biochemical, Agaricus bisporus
Method: Tyrosinase inhibition was determined using the DOPA-chrome formation method as described previously with slight modifications. […] They were preincubated for 10 min at room temperature. Reactions were initiated by adding 4 μL aliquots of 10 mM L-DOPA to each well and incubating at 37 °C for 20 min. Tyrosinase activity was then determined by measuring absorbance at 475 nm. […] Experiments were performed in triplicate.

[1] = target: porcine pancreatic elastase (Sus scrofa, UniProt P00772)
Method: Elastase inhibition assay was performed as described previously with some modifications[32]. Briefly, in Nunc-96 well microtiter plates, 20-µL aliquots of 0.8-units/mL PPE in Trizma® base buffer (pH 8.0) were mixed with 20-µL samples, and the mixtures were then diluted to 180 µL in Trizma® base buffer. Test extracts were preincubated with enzyme for 15 min, and 20-μL aliquots of the substrate N-succinyl-Ala-Ala-Ala-p-nitroanilide (A3PVN; 2.9 mM) were added and incubated for another 15 min. Positive control and blank wells contained oleanolic acid and water, respectively. Experiments were conducted in triplicate, and inhibition rates were determined according to absorbance at 401 nm using a VersaMax microplate reader.
Percentage inhibition was calculated using the following equation: Elastase inhibition%=1-T-Tb/E-Eb×100, where E is the absorbance of the enzyme reaction, Eb is the absorbance of the enzyme blank, T is the absorbance of the test sample, and Tb is the absorbance of the test blank.

elastase = conditions: cited from earlier work

Sequence of porcine pancreatic elastase (P00772 27-266): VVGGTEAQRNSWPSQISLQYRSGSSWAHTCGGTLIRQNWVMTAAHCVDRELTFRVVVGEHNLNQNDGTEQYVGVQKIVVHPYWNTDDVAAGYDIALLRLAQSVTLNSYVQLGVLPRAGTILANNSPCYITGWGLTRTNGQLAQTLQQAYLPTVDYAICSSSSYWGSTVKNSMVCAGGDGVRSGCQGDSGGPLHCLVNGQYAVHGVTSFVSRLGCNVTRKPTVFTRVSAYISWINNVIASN

Compound	Activity as tyrosinase inhibitors (in words) (mushroom tyrosinase)	IC50 tyrosinase inhibition (mushroom tyrosinase)	IC50 [1]	IC50 elastase inhibition (previous studies) (elastase)
C[C@@H]1CC[C@]2(C(=O)O)CCC3(C)C(=CCC4C3(C)CCC3C(C)(C(=O)O)[C@H]5OCCO[C@@H]5C[C@@]34C)C2[C@]1(C)O (stereo partly shown) [Compound 1, 2,3-O-ethylene glycol, 19-hydroxyurs-12-en-23,28-dioic acid]	moderate activities	207.79 µg/mL (≈ 381 µM)	224 µM	
C[C@@H]1CC[C@]2(C(=O)O)CCC3(C)C(=CCC4C3(C)CCC3C(C)(C)[C@H]5OCCCO[C@@H]5C[C@@]34C)C2[C@]1(C)O (stereo partly shown) [Compound 2, 2,3-O-Propanediol, 19-hydroxyurs-12-en-28-oic acid]	moderate activities	221.51 µg/mL (≈ 419 µM)	186 µM	
C[C@H]1[C@H](C)CC[C@]2(C(=O)O)CC[C@]3(C)C(=CC[C@@H]4[C@@]5(C)CC[C@H](O)C(C)(C)[C@@H]5CC[C@]43C)[C@H]12 [ursolic acid]				31.0 µg/mL (≈ 67.9 µM)
